Experimental data reported in PubChem BioAssay (NCI).
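Values below derive from 48-hour exposures of cells grown in 96-well plates, with endpoints linearly interpolated between the two concentrations bracketing the appropriate inhibition level. TGI: concentration producing complete growth inhibition.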

Tests used:
Experiment in all cases: inhibition of tumour cell growth, NCI panel, 48 h
UO-31 renal = system: UO-31 renal
OVCAR-8 ovarian = system: OVCAR-8 ovarian
OVCAR-5 ovarian = system: OVCAR-5 ovarian
SK-MEL-2 melanoma = system: SK-MEL-2 melanoma
T-47D breast = system: T-47D breast
IGROV1 ovarian = system: IGROV1 ovarian
K-562 leukemia = system: K-562 leukemia
SW-620 colon = system: SW-620 colon
SNB-19 CNS = system: SNB-19 CNS
DU-145 prostate = system: DU-145 prostate
MOLT-4 leukemia = system: MOLT-4 leukemia
HT29 colon = system: HT29 colon
MCF7 breast = system: MCF7 breast
U251 CNS = system: U251 CNS
NCI-H460 lung = system: NCI-H460 lung
HL-60(TB) leukemia = system: HL-60(TB) leukemia
UACC-62 melanoma = system: UACC-62 melanoma
HCC-2998 colon = system: HCC-2998 colon
MALME-3M melanoma = system: MALME-3M melanoma
HOP-62 NSCLC = system: HOP-62 NSCLC
HCT-15 colon = system: HCT-15 colon
NCI-H226 lung = system: NCI-H226 lung
CCRF-CEM leukemia = system: CCRF-CEM leukemia
RXF 393 renal = system: RXF 393 renal
MDA-MB-231 breast = system: MDA-MB-231 breast
COLO 205 colon = system: COLO 205 colon
NCI-H23 lung = system: NCI-H23 lung
SK-MEL-5 melanoma = system: SK-MEL-5 melanoma
SN12C renal = system: SN12C renal
EKVX NSCLC = system: EKVX NSCLC
HCT-116 colon = system: HCT-116 colon
NCI/ADR-RES ovarian = system: NCI/ADR-RES ovarian
SR leukemia = system: SR leukemia
NCI-H522 lung = system: NCI-H522 lung
M14 melanoma = system: M14 melanoma
PC-3 prostate = system: PC-3 prostate
HS 578T breast = system: HS 578T breast
SNB-75 CNS = system: SNB-75 CNS
RPMI-8226 leukemia = system: RPMI-8226 leukemia
786-0 renal = system: 786-0 renal
SK-OV-3 ovarian = system: SK-OV-3 ovarian
ACHN renal = system: ACHN renal
SF-539 CNS = system: SF-539 CNS
SK-MEL-28 melanoma = system: SK-MEL-28 melanoma
SF-268 CNS = system: SF-268 CNS
UACC-257 melanoma = system: UACC-257 melanoma
A549 NSCLC = system: A549 NSCLC
OVCAR-4 ovarian = system: OVCAR-4 ovarian
KM12 colon = system: KM12 colon
TK-10 renal = system: TK-10 renal
HOP-92 NSCLC = system: HOP-92 NSCLC

Measured: TGI

Cc1nnc2sc(Cc3cnc(N)s3)nn12
> 100 µM: all assays above
